Where a name gives a salt, the structure may show the parent alone.
Assay: Timolol concentration of the aqueous humor after ophthalmic administration, collected with the bodily fluid-collecting device (LC/MS/MS)
Format: in vivo
Conditions: rabbit; single 40 μl ophthalmic dose of 0.5% timolol maleate sustained ophthalmic solution; aqueous humor 4 hours after administration; Method 1 (0.25, 0.5, 1, 2, 4 h) vs Method 2 (4 h only); FIG. 6
Procedure: Using a micropipette, a 0.5% timolol maleate sustained ophthalmic solution (produced by Santen Pharmaceutical Co., Ltd., Timoptol (registered trademark) XE ophthalmic solution 0.5%) was administered as a single dose of 40 μl near the upper portion of the bulbar conjunctiva of rabbit eyeballs retained using a retention can. The administration was performed on both eyes. A rabbit was retained using a retention can. 30 μl of a 10-fold diluted solution (dilution medium: physiological saline) of a 0.4% oxybuprocaine hydrochloride ophthalmic solution (produced by Santen Pharmaceutical Co., Ltd., Benoxil (registered trademark) ophthalmic solution 0.4%) was ophthalmically administered to the retained rabbit, and local anesthesia was applied. After gently stimulating the cornea with the tip of tweezers and confirming the disappearance of the corneal reflex, a lid retractor was attached. In the Example, a device with a 20-μl capillary attached to a 34 G injection needle was used as the bodily fluid-collecting device. After retaining the eyeball by sandwiching the upper bulbar conjunctiva with tweezers, the needle tip of the bodily fluid-collecting device was inserted into the anterior chamber via the cornea by two-step puncture while checking the curved surface of the cornea. […] After deproteinizing each sample, the timolol concentration of the aqueous humor was measured using the LC/MS/MS method.

## CC(C)(C)NC[C@H](O)COc1nsnc1N1CCOCC1 [timolol, timolol maleate]
  timolol concentration of the aqueous humor at the final collection (Method 1, repeated collection from the same eye) compared with one-point collection (Method 2): equivalent
